Results as given in patent publication US20250275959A1, “COMPOUNDS AND METHODS OF THEIR USE” (LEXICON PHARMACEUTICALS, INC., priority 2024, published 2025).
pIC50: −log10 of the molar value.

Target: hACSL5 (Homo sapiens (Human), UniProt Q9ULC5)
Assay: Cell-based assay (CBA) with B12FA in hACSL5-transfected Expi293F / FlpIn TRex293 cells
Details: hACSL5-expressing cells
In short: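 hACSL5-expressing Expi293F or tetracycline-induced FlpIn TRex293 cells, serum- and glucose-starved 1 h, then treated 3 h with serially diluted compound plus 20 µM B12FA. After fixation, 630/520 nm emission ratio (ex 485 nm) gave % inhibition versus no-inhibitor and 10 µM compound/non-induced controls; IC50 by Hill fit.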

Sequence of hACSL5 (Q9ULC5 whole entry): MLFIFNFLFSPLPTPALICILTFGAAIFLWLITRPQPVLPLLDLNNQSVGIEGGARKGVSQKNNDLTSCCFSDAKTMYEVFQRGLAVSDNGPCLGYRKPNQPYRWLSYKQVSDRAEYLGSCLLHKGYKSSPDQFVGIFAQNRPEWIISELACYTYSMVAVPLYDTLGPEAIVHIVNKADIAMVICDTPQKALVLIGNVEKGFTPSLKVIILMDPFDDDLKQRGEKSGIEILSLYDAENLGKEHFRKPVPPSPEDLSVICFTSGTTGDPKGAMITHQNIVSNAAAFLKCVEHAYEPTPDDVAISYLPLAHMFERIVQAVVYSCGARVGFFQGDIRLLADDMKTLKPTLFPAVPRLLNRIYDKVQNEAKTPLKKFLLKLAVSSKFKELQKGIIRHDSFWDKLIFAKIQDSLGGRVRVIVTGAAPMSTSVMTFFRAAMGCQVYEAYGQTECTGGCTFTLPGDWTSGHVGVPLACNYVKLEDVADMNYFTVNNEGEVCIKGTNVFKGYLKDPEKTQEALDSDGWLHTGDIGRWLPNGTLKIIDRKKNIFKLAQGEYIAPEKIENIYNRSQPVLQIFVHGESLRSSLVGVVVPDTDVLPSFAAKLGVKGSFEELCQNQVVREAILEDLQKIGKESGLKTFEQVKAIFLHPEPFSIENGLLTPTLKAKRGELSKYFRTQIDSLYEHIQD

pIC50 | SMILES
6.30 to 7.00 | CC[C@@H](Oc1ccc(C(=O)NS(=O)(=O)c2ccc(OCCN(C)C)cc2)c(F)c1F)c1ccc(OCC2CC2)cn1 [Compound B, (R)-4-(1-(5-(cyclopropylmethoxy)pyridin-2-yl)propoxy)-N-((4-(2-(dimethylamino)ethoxy)phenyl)sulfonyl)-2,3-difluorobenzamide]
6.30 to 7.00 | CC[C@@H](Oc1ccc(C(=O)NS(=O)(=O)N2CCC(OCCN(C)C)CC2)c(F)c1F)c1ccc(Oc2ccccn2)cn1 [Compound C, (R)-N-((4-(2-(dimethylamino)ethoxy)piperidin-1-yl)sulfonyl)-2,3-difluoro-4-(1-(5-(pyridin-2-yloxy)pyridin-2-yl)propoxy)benzamide]
> 7.00 | CC[C@@H](Oc1ccc(C(=O)NS(=O)(=O)N2CCN(C)CC2)c(F)c1F)c1ccc(Oc2ccccn2)cn1 [Compound D, (R)-2,3-difluoro-N-((4-methylpiperazin-1-yl)sulfonyl)-4-(1-(5-(pyridin-2-yloxy)pyridin-2-yl)propoxy)benzamide]
